From patent US12077503B2, “Substituted cyclic amides and their use as herbicides” (FMC CORPORATION, priority 2015, dated 2024)
Where two headings read alike, the source gives them in different places.

Legend:
Assay type in all cases: in vivo
[1] = test system: ragweed (common ragweed, Ambrosia elatior); assay: Test A postemergence; conditions: Ambrosia artemisiifolia, post-emergence, 240 h, postemergence; for pest or weed control at 125 g/ha: 125 g ai/ha; for pest or weed control at 500 g/ha: 500 g ai/ha, 0 to 100 scale, 0 is no effect, 100 is complete control
Method in brief: (§1)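 Ratings of 0 (no effect) to 100 (complete control) come from visual comparison with untreated controls roughly 10 d after treatment. Test chemicals, formulated in a non-phytotoxic solvent mixture with surfactant, were applied either as a preemergence directed soil spray on seeded soil or postemergence to one- to two-leaf plants 2 to 10 cm tall.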

[2] = test system: barnyardgrass (Echinochloa crus-galli); assay: Test A postemergence; conditions: Echinochloa crus-galli, post-emergence, 240 h, postemergence, read-out: Barnyardgrass plant response rating; for pest or weed control at 125 g/ha: 125 g ai/ha, visual injury on 0 to 100 scale (0 no effect, 100 complete control), approx. 10 d; for pest or weed control at 500 g/ha: 500 g ai/ha, 0 to 100 scale, 0 is no effect, 100 is complete control
Method in brief: as §1

corn (Zea mays) = assay: Test A postemergence; conditions: Zea mays, post-emergence, 240 h, postemergence, read-out: Corn plant response rating; for plant injury at 125 g/ha: 125 g ai/ha, visual injury on 0 to 100 scale (0 no effect, 100 complete control), approx. 10 d; for plant injury at 500 g/ha: 500 g ai/ha, 0 to 100 scale, 0 is no effect, 100 is complete control
Method in brief: as §1

[3] = test system: giant foxtail (Setaria faberii); assay: Test A postemergence; conditions: Setaria faberi, post-emergence, 240 h, postemergence, read-out: Foxtail, Giant plant response rating; for pest or weed control at 125 g/ha: 125 g ai/ha, visual injury on 0 to 100 scale (0 no effect, 100 complete control), approx. 10 d; for pest or weed control at 500 g/ha: 500 g ai/ha, 0 to 100 scale, 0 is no effect, 100 is complete control
Method in brief: as §1

[4] = test system: ryegrass, Italian (Italian ryegrass, Lolium multiflorum); assay: Test A postemergence; conditions: Lolium multiflorum, post-emergence, 240 h, postemergence; for pest or weed control at 125 g/ha: 125 g ai/ha; for pest or weed control at 500 g/ha: 500 g ai/ha, 0 to 100 scale, 0 is no effect, 100 is complete control
Method in brief: as §1

[5] = test system: pigweed (Amaranthus retroflexus); assay: Test A postemergence; conditions: Amaranthus retroflexus, post-emergence, 240 h, postemergence; for pest or weed control at 125 g/ha: 125 g ai/ha; for pest or weed control at 500 g/ha: 500 g ai/ha, 0 to 100 scale, 0 is no effect, 100 is complete control
Method in brief: as §1

[6] = test system: wheat (Triticum aestivum); assay: Test A postemergence; conditions: Triticum aestivum, post-emergence, 240 h, postemergence; for plant injury at 125 g/ha: 125 g ai/ha; for plant injury at 500 g/ha: 500 g ai/ha, 0 to 100 scale, 0 is no effect, 100 is complete control
Method in brief: as §1

[7] = test system: blackgrass (Alopecurus myosuroides); assay: Test A postemergence; conditions: Alopecurus myosuroides, post-emergence, 240 h, postemergence, read-out: Blackgrass plant response rating; for pest or weed control at 125 g/ha: 125 g ai/ha, visual injury on 0 to 100 scale (0 no effect, 100 complete control), approx. 10 d; for pest or weed control at 500 g/ha: 500 g ai/ha, 0 to 100 scale, 0 is no effect, 100 is complete control
Method in brief: as §1

[8] = test system: Galium (catchweed bedstraw, Galium aparine); assay: Test A postemergence; conditions: Galium, post-emergence, 240 h, postemergence, read-out: Galium plant response rating; for pest or weed control at 125 g/ha: 125 g ai/ha, visual injury on 0 to 100 scale (0 no effect, 100 complete control), approx. 10 d; for pest or weed control at 500 g/ha: 500 g ai/ha, 0 to 100 scale, 0 is no effect, 100 is complete control
Method in brief: as §1

Kochia (Kochia scoparia) = assay: Test A postemergence; conditions: Bassia scoparia, post-emergence, 240 h, postemergence, read-out: Kochia plant response rating; for pest or weed control at 125 g/ha: 125 g ai/ha, visual injury on 0 to 100 scale (0 no effect, 100 complete control), approx. 10 d; for pest or weed control at 500 g/ha: 500 g ai/ha, 0 to 100 scale, 0 is no effect, 100 is complete control
Method in brief: as §1

[9] = test system: barnyardgrass (Echinochloa crus-galli); assay: Test B flooded paddy test; conditions: Echinochloa crus-galli, 250 g ai/ha, Flood; 0 to 100 scale where 0 is no effect and 100 is complete control; read-out: Barnyardgrass plant response rating
Method in brief: (§2)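 Response scored visually against untreated controls, 0 = no effect and 100 = complete control, 13–15 d after treatment in the greenhouse. Compounds added to paddy water held 3 cm above soil surface. Treatment given at 2-leaf stage.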

[10] = test system: sedge, umbrella (small-flower umbrella sedge, Cyperus difformis); assay: Test B flooded paddy test; conditions: Cyperus difformis, 250 g ai/ha, Flood; 0 to 100 scale where 0 is no effect and 100 is complete control; read-out: Sedge, Umbrella plant response rating
Method in brief: as §2

[11] = test system: ducksalad (Heteranthera limosa); assay: Test B flooded paddy test; conditions: Heteranthera limosa, 250 g ai/ha, Flood; 0 to 100 scale where 0 is no effect and 100 is complete control; read-out: Ducksalad plant response rating
Method in brief: as §2

rice (Oryra sativa) = assay: Test B flooded paddy test; conditions: Oryza sativa, 250 g ai/ha, Flood; 0 to 100 scale where 0 is no effect and 100 is complete control; read-out: Rice plant response rating
Method in brief: as §2

[12] = test system: pigweed (Amaranthus retroflexus); assay: Test A preemergence; conditions: Amaranthus retroflexus, pre-emergence, 240 h, preemergence, read-out: Pigweed plant response rating; for pest or weed control at 125 g/ha: 125 g ai/ha, approx. 10 d; for pest or weed control at 500 g/ha: 500 g ai/ha
[13] = read-out: Ragweed plant response rating
[14] = read-out: Ryegrass, Italian plant response rating
[15] = read-out: Pigweed plant response rating
[16] = read-out: Wheat plant response rating
[17] = 0 to 100 scale where 0 is no effect and 100 is complete control
[18] = visual injury on 0 to 100 scale (0 no effect, 100 complete control), approx. 10 d, read-out: Ragweed plant response rating
[19] = visual injury on 0 to 100 scale (0 no effect, 100 complete control), approx. 10 d, read-out: Ryegrass, Italian plant response rating
[20] = visual injury on 0 to 100 scale (0 no effect, 100 complete control), approx. 10 d, read-out: Pigweed plant response rating
[21] = visual injury on 0 to 100 scale (0 no effect, 100 complete control), approx. 10 d, read-out: Wheat plant response rating

| Structure (SMILES) | pest or weed control at 500 g/ha [1, 13] [%] | pest or weed control at 125 g/ha [2] [%] | pest or weed control at 500 g/ha [2] [%] | plant injury at 125 g/ha (corn (Zea mays)) [%] | plant injury at 500 g/ha (corn (Zea mays)) [%] | pest or weed control at 125 g/ha [3] [%] | pest or weed control at 500 g/ha [3] [%] | pest or weed control at 500 g/ha [4, 14] [%] | pest or weed control at 500 g/ha [5, 15] [%] | plant injury at 500 g/ha [6, 16] [%] | pest or weed control at 125 g/ha [7] [%] | pest or weed control at 500 g/ha [7] [%] | pest or weed control at 125 g/ha [8] [%] | pest or weed control at 500 g/ha [8] [%] | pest or weed control at 125 g/ha (Kochia (Kochia scoparia)) [%] | pest or weed control at 500 g/ha (Kochia (Kochia scoparia)) [%] | pest or weed control at 250 g/ha [9] [%] | pest or weed control at 250 g/ha [10] [%] | pest or weed control at 250 g/ha [11] [%] | pest or weed control at 250 g/ha (rice (Oryra sativa)) [%] | further results |
| --- | --- | --- | --- | --- | --- | --- | --- | --- | --- | --- | --- | --- | --- | --- | --- | --- | --- | --- | --- | --- | --- |
| CN1C[C@H](c2ccc(C(F)(F)F)cc2)[C@@](F)(C(=O)Nc2cccc(F)c2F)C1=O (racemic) [Compound 1151] | 30 | 80 | 90 | 60 | 80 | 70 | 80 | 50 | 80 | 60 | 30 | 60 | 20 | 60 | 30 | 60 | 0 | 0 | 0 | 0 | pest or weed control at 125 g/ha ([1]; visual injury vs untreated controls after approx. 10 d, 0 = no effect, 100 = complete control, read-out: Ragweed plant response rating (0 to 100 scale)): 0%; pest or weed control at 125 g/ha ([4]; visual injury vs untreated controls after approx. 10 d, 0 = no effect, 100 = complete control, read-out: Ryegrass, Italian plant response rating (0 to 100 scale)): 30%; pest or weed control at 125 g/ha ([5]; visual injury vs untreated controls after approx. 10 d, 0 = no effect, 100 = complete control, read-out: Pigweed plant response rating (0 to 100 scale)): 20%; plant injury at 125 g/ha ([6]; visual injury vs untreated controls after approx. 10 d, 0 = no effect, 100 = complete control, read-out: Wheat plant response rating (0 to 100 scale)): 40%; pest or weed control at 125 g/ha [12, 17]: 80%; pest or weed control at 500 g/ha [12, 17]: 100% |
| Cc1c(F)cccc1NC(=O)[C@H]1C(=O)N(C)C[C@@H]1c1cc(F)cc(F)c1 [Compound 1140] | 30 | 90 | 90 | 60 | 70 | 90 | 90 | 70 | 0 | 70 | 30 | 70 | 40 | 50 | 0 | 40 | 75 | 0 | 100 | 0 | pest or weed control at 125 g/ha [1, 18]: 0%; pest or weed control at 125 g/ha [4, 19]: 50%; pest or weed control at 125 g/ha [5, 20]: 0%; plant injury at 125 g/ha [6, 21]: 30%; pest or weed control at 125 g/ha [12, 17]: 0%; pest or weed control at 500 g/ha [12, 17]: 40% |
| C/C=C/N1C[C@@H](c2cccc(C(F)(F)F)c2)[C@H](C(=O)Nc2ccccc2F)C1=O (racemic) [Compound 1094] | 0 | 40 | 80 | 0 | 0 | 30 | 80 | 20 | 20 | 30 | 0 | 30 | 20 | 20 | 0 | 0 | 45 | 0 | 0 | 0 | pest or weed control at 125 g/ha [1, 18]: 0%; pest or weed control at 125 g/ha [4, 19]: 0%; pest or weed control at 125 g/ha [5, 20]: 0%; plant injury at 125 g/ha [6, 21]: 20%; pest or weed control at 125 g/ha [12, 17]: 0%; pest or weed control at 500 g/ha ([12]; visual injury rating about 10 d after treatment, 0 to 100 scale (0 no effect, 100 complete control)): 0% |
